Assay results: US20200085853A1, “TARGETING NR3B1 FOR TREATMENT OF NASH” (University of Southern California, priority 2018, published 2020)

How the values were obtained:
[1] = tested on: oxygen consumption rate (OCR); assay: Seahorse XF24 metabolic flux analysis (oxygen consumption rate); type: cell-based
Protocol: Cells were cultured on XF24 plates during experiment. The mitochondrial inhibitors, oligomycin (1 μM), FCCP (0.1 μM) and Rotenone (1 μM) were added after four measurements of basal OCR as described previously.^14 • RNA Isolation, Reverse Transcription and Quantitative PCR

[2] = tested on: RXR; assay: RXR agonist treatment, expression of lipogenic and triglyceride biosynthetic genes; type: cell-based; details: FIG. 6A
Excerpt: To address how NR3B may inhibit the lipogenic and triglyceride synthesis process, the RNA-seq data for SREBP and Chrebp, two transcriptional factors directly involved in the biosynthesis of lipid was explored. […] RXR binds to both PPARg and LXR and has the potential to regulate lipid metabolism through its interaction with these two nuclear receptors. It was explored whether RXR activation alters the expression of the lipogenic and triglyceride biosynthetic genes.

For C=C(c1ccc(C(=O)O)cc1)c1cc2c(cc1C)C(C)(C)CCC2(C)C [Bexarotene], the “effect on the NR3B-PA induced change of OCR” value ([1]; co-treatment with NR3B-PA, FIG. 6B) was “did not block”, the “expression of AGPAT3” value [2] was “induction” and the “expression of DGAT2” value [2] was “induction”. For the same compound, the “expression of Fasn” value [2] was “induction”.

With COc1cc(/C=C(\C#N)C(=O)Nc2nnc(C(F)(F)F)s2)ccc1OCc1ccc(C(F)(F)F)cc1C(F)(F)F [XCT 790] the “basal oxygen consumption rate (OCR)” value ([1]; 0.1 μM, FIG. 2A) was “similar” and the “maximal oxygen consumption rate (OCR)” value ([1]; 0.1 μM, FIG. 2A) was “similar”.
